Values quoted from earlier work as cited in paper PMC3160894, “Isolation and Characterization of CvIV4: A Pain Inducing α- Scorpion Toxin” (PLoS ONE, 2011).

Test system: Nav1.7
Settings: ref [19], [20]
Description: Given that buthid scorpions produce toxins that bind Na^+ channels in excitable membranes, it is plausible that their venom induces pain by initiating action potentials in nociceptors. Because some human pain disorders involve Na^+ channels expressed in nociceptors, [15], there has been an effort, albeit limited, to determine the components in buthid venom that induce pain with the goal of isolating peptides that discriminate among the DRG-expressed VGSCs. […] Because β-toxins make Na^+ channel ... || CvIV4 also slowed the fast inactivation and produced a persistent Na^+ current in rNav1.2, rNav1.3 and rNav1.4. […] Given that CvIV4 and CeII8 are similar in structure but differ in function and isoform selectivity, a comparison of these two toxins should improve our understanding of the structural characteristics that determine New World scorpion toxin selectivity and function.

Substance | Effect on fast inactivation of Nav1.7
ODI: α-toxin from Odonthobuthus doriae; GenBank P84646 | slow the fast inactivation of Nav1.7
AahII: α-toxin from Androctonus australis Hector; GenBank P01484 | slow the fast inactivation of Nav1.7
LqhIII: α-toxin from Leiurus quinquestriatus hebraeus; GenBank P59355 | slow the fast inactivation of Nav1.7
